Measurements from patent US20070128217A1 (priority 2003, published 2007).

Assays:
[1] = test system: control sera (pooled serum of ten healthy LUMC hospital workers; commercial negative donor pooled serum from the Dutch bloodbank); type: binding, human; parameters: Binding of Control serum LUMC to linear peptides / Binding of Control serum Blood-bank to linear peptides / Binding of Control serum LUMC to looped peptides / Binding of Control Serum Blood-Bank to Looped peptides / Binding of Control serum LUMC to linear peptides of the protein M of SARS-CoV Urbani / Binding of Control serum Blood-bank to linear peptides of the protein M of SARS-CoV Urbani / Binding of Control serum LUMC to looped peptides of the protein M of SARS-CoV Urbani / Binding of Control Serum Blood-Bank to Looped peptides of the protein M of SARS-CoV Urbani: unit not given here
[2] = test system: antibodies in sera from SARS patients (sera 1a, 1b, 2, 6, 37, 62, London, SARS-yellow, SARS-green); type: binding, human; parameters: Binding of serum 6 to linear peptides of protein X1 of SARS-CoV Urbani / Binding of serum 37 to linear peptides of protein X1 of SARS-CoV Urbani / Binding of serum 6 to looped/cyclic peptide (PEPSCAN-ELISA) / Binding of serum 37 to looped/cyclic peptide (PEPSCAN-ELISA) / Binding of serum 37 to looped/cyclic peptides of protein X1 of SARS-CoV Urbani / Binding of serum 6 to linear peptides of protein X2 / Binding of serum 37 to linear peptides of protein X2 / Binding of serum 37 to looped/cyclic peptides of protein X2 of SARS-CoV Urbani / Binding of serum 6 to linear peptides of protein M of SARS-CoV Urbani / Binding of serum 37 to linear peptides of protein M of SARS-CoV Urbani / Binding of serum 6 to looped/cyclic peptides of protein M of SARS-CoV Urbani / Binding of serum 37 to looped/cyclic peptides of protein M of SARS-CoV Urbani / Binding of serum 6 to linear peptides of protein X3 of SARS-CoV Urbani / Binding of serum 37 to linear peptides of protein X3 of SARS-CoV Urbani / Binding of serum 37 to looped/cyclic peptides of protein X3 of SARS-CoV Urbani / Binding of serum 6 to linear peptides of protein X4 of SARS-CoV Urbani / Binding of serum 37 to linear peptides of protein X4 of SARS-CoV Urbani / Binding of serum 37 to looped/cyclic peptides of protein X4 of SARS-CoV Urbani / Binding of serum 6 to linear peptides of protein X5 of SARS-CoV Urbani / Binding of serum 37 to linear peptides of protein X5 of SARS-CoV Urbani / Binding of serum 37 to looped/cyclic peptides of protein X5 of SARS-CoV Urbani / Binding of serum 6 to linear peptides of protein N of SARS-CoV Urbani / Binding of serum 37 to linear peptides of protein N of SARS-CoV Urbani / Binding of serum 6 to linear peptide (PEPSCAN-ELISA) / Binding of serum 1a to looped/cyclic peptides of protein N of SARS-CoV Urbani / Binding of serum 1b to looped/cyclic peptides of protein N of SARS-CoV Urbani / Binding of serum 2 to looped/cyclic peptides of protein N of SARS-CoV Urbani / Binding of serum 6 to looped/cyclic peptides of protein N of SARS-CoV Urbani / Binding of serum 37 to looped/cyclic peptides of protein N of SARS-CoV Urbani / Binding of serum 62 to looped/cyclic peptides of protein N of SARS-CoV Urbani / Binding of serum London to looped/cyclic peptides of protein N of SARS-CoV Urbani / Binding of serum SARS-green to looped/cyclic peptides of protein N of SARS-CoV Urbani: unit not given here
[3] = test system: rabbit serum obtained by immunizing a rabbit with the SARS-CoV strain Frankfurt 1; type: binding; parameters: Binding of a rabbit serum to linear peptides / Binding of a rabbit serum to looped peptides / Rabbit serum linear peptides / Rabbit serum looped peptides / Binding of a rabbit serum to linear peptides of protein N of SARS-CoV Urbani (Rabbit serum linear peptides) / Binding of a rabbit serum to looped/cyclic peptides of protein N of SARS-CoV Urbani (Rabbit serum looped peptides): unit not given here
[4] = test system: recombinant human anti-SARS-CoV antibody 03-018; type: binding; parameters: Binding of antibody 03-018 to linear peptides of the N protein of SARS-CoV Urbani / Binding of antibody 03-018 to looped/cyclic peptides of the N protein of SARS-CoV Urbani: unit not given here

Sequence	Binding of Control Serum Blood-Bank to Looped peptides [1]	Binding of Control serum Blood-bank to linear peptides [1]	Binding of Control serum LUMC to linear peptides [1]	Binding of Control serum LUMC to looped peptides [1]	Binding of serum 1a to looped/cyclic peptides of protein N of SARS-CoV Urbani [2]	Binding of serum 1b to looped/cyclic peptides of protein N of SARS-CoV Urbani [2]	Binding of serum 2 to looped/cyclic peptides of protein N of SARS-CoV Urbani [2]	Binding of serum 6 to looped/cyclic peptides of protein N of SARS-CoV Urbani [2]	Binding of serum 37 to looped/cyclic peptides of protein N of SARS-CoV Urbani [2]	Binding of serum 62 to looped/cyclic peptides of protein N of SARS-CoV Urbani [2]	Binding of serum London to looped/cyclic peptides of protein N of SARS-CoV Urbani [2]	Binding of serum SARS-green to looped/cyclic peptides of protein N of SARS-CoV Urbani [2]	Binding of serum SARS-yellow to looped/cyclic peptides of protein N of SARS-CoV Urbani [2]	Binding of a rabbit serum to linear peptides of protein N of SARS-CoV Urbani (Rabbit serum linear peptides) [3]	Binding of a rabbit serum to looped/cyclic peptides of protein N of SARS-CoV Urbani (Rabbit serum looped peptides) [3]	Binding of antibody 03-018 to linear peptides of the N protein of SARS-CoV Urbani [4]	Binding of antibody 03-018 to looped/cyclic peptides of the N protein of SARS-CoV Urbani [4]	Binding of serum 1a to linear peptide (PEPSCAN-ELISA) [2]	Binding of serum 1b to linear peptide (PEPSCAN-ELISA) [2]	Binding of serum 2 to linear peptide (PEPSCAN-ELISA) [2]	other results
LIRQGTDYKHWPQIA	0.6	0.7	0.7	0.5	0.4	0.5	0.5	0.3	0.6	0.5	0.3	1.0	1.1	0.2	0.0	0.1	0.1	–	–	–	Binding of serum 1a to linear peptides of protein N of SARS-CoV Urbani [2]: 0.3; Binding of serum 1b to linear peptides of protein N of SARS-CoV Urbani [2]: 0.2; Binding of serum 2 to linear peptides of protein N of SARS-CoV Urbani [2]: 0.4; Binding of serum 6 to linear peptides of protein N of SARS-CoV Urbani [2]: 0.2; Binding of serum 37 to linear peptides of protein N of SARS-CoV Urbani [2]: 0.8; Binding of serum 62 to linear peptides of protein N of SARS-CoV Urbani [2]: 0.9; Binding of serum London to linear peptides of protein N of SARS-CoV Urbani [2]: 0.9; Binding of serum SARS-green to linear peptides of protein N of SARS-CoV Urbani [2]: 0.4; Binding of serum SARS-yellow to linear peptides of protein N of SARS-CoV Urbani [2]: 0.6
LLDRLNQLESKVSGK	0.3	0.7	0.6	0.2	0.2	0.1	0.2	0.1	0.4	0.4	0.3	0.0	0.1	0.6	0.1	0.1	0.2	0.2	0.1	0.3	Binding of serum 6 to linear peptide (PEPSCAN-ELISA) [2]: 0.2; Binding of serum 37 to linear peptide (PEPSCAN-ELISA) [2]: 0.7; Binding of serum 62 to linear peptide (PEPSCAN-ELISA) [2]: 0.6; Binding of serum London to linear peptide (PEPSCAN-ELISA) [2]: 0.5; Binding of serum SARS-green to linear peptide (PEPSCAN-ELISA) [2]: 0.4; Binding of serum SARS-yellow to linear peptide (PEPSCAN-ELISA) [2]: 0.7
LLLDRLNQLESKVSG	0.5	0.8	0.9	0.5	0.3	0.1	0.4	0.1	0.5	0.3	0.3	0.6	0.2	0.2	0.2	0.1	0.2	0.3	0.2	0.4	Binding of serum 6 to linear peptide (PEPSCAN-ELISA) [2]: 0.2; Binding of serum 37 to linear peptide (PEPSCAN-ELISA) [2]: 0.8; Binding of serum 62 to linear peptide (PEPSCAN-ELISA) [2]: 0.6; Binding of serum London to linear peptide (PEPSCAN-ELISA) [2]: 0.9; Binding of serum SARS-green to linear peptide (PEPSCAN-ELISA) [2]: 1.1; Binding of serum SARS-yellow to linear peptide (PEPSCAN-ELISA) [2]: 0.7
